Test results from patent US8134015B2, “Compound inhibiting in vivo phosphorous transport and medicine containing the same” (Kyowa Hakko Kirin Co., Ltd., priority 2003, dated 2012).

These compounds were tested against T1, rat NaPi-2b (Rattus norvegicus, UniProt Q9JJ09) (assay: Sodium-dependent phosphate uptake of Xenopus oocytes which expressed NaPi-2b (32P)). Settings: Xenopus oocytes expressing rat NaPi-2b, 32P radioactive phosphorus; read-out: IC50 (phosphate uptake inhibitory activity).
T1 construct: expressed in transfected cells; host or cells: Xenopus oocytes injected with cRNA
T1 sequence (Q9JJ09 1-695): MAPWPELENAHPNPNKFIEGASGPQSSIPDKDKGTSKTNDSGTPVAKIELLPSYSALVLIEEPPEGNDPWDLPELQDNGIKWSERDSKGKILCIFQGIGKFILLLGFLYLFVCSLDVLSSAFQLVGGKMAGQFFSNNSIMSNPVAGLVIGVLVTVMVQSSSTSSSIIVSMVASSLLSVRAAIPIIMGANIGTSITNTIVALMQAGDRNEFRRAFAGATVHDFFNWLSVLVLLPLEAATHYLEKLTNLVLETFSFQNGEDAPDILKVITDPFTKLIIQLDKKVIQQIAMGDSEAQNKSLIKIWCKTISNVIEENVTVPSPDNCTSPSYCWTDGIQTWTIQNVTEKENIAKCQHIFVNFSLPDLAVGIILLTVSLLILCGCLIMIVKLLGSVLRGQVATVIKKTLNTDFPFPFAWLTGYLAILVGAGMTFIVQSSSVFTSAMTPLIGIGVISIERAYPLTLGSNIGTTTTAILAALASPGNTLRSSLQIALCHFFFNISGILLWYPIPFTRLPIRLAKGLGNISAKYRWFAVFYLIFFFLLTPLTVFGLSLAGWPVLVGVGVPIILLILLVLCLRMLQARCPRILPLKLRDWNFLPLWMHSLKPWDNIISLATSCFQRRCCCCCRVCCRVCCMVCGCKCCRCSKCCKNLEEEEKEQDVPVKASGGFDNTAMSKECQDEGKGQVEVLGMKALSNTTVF
Type: cell-based
Outline: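 Inhibition at 300 μM and 100 μM was read off one inhibition curve of 32P phosphate uptake. Uptake was measured in Xenopus oocytes cultured 2 days after injection of cRNA for cloned rat NaPi-2b.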

SMILES	IC50 [µM]
Cc1csc(NC(=O)c2cccc(CN(CCO)CCO)c2)c1C(=O)N/N=C/c1ccc(Cl)c(C(F)(F)F)c1 [Compound 790, 3-{[Bis-(2-hydroxy-ethyl)-amino]-methyl}-N-[3-(4-chloro-3-trifluoromethyl-benzylidene-hydrazinocarbonyl)-4-methyl-thiophen-2-yl]-benzamide]	4.32
Cc1ccc(/C=N/NC(=O)c2c(NC(=O)c3cccc(CN(CC(C)O)CC(C)O)c3)sc3ccccc23)cc1C (stereo not shown) [Compound 792, 3-{[Bis-(2-hydroxy-propyl)-amino]-methyl}-N-[3-(3,4-dimethyl-benzylidene-hydrazinocarbonyl)-benzo[b]thiophen-2-yl]-benzamide]	1.26
CC(O)CN(Cc1cccc(C(=O)Nc2sc3ccccc3c2C(=O)N/N=C/c2ccc(Cl)c(C(F)(F)F)c2)c1)CC(C)O (stereo not shown) [Compound 796, 3-{[Bis-(2-hydroxy-propyl)-amino]-methyl}-N-[3-(4-chloro-3-trifluoromethyl-benzylidene-hydrazinocarbonyl)-benzo[b]thiophen-2-yl]-benzamide]	0.35
COc1ccc(/C=N/NC(=O)c2c(NC(=O)c3cccc(CN(CC(C)O)CC(C)O)c3)sc3ccccc23)cc1 (stereo not shown) [Compound 797, 3-{[Bis-(2-hydroxy-propyl)-amino]-methyl}-N-[3-(4-methoxy-benzylidene-hydrazinocarbonyl)-benzo[b]thiophen-2-yl]-benzamide]	3.39
Cc1ccc(/C=N/NC(=O)c2c(NC(=O)c3cccc(CN4CCC(CO)CC4)c3)sc3ccccc23)cc1C [Compound 798, N-[3-(3,4-Dimethyl-benzylidene-hydrazinocarbonyl)-benzo[b]thiophen-2-yl]-3-(4-hydroxymethyl-piperidin-1-ylmethyl)-benzamide]	3.62
Cc1ccc(/C=N/NC(=O)c2c(NC(=O)c3cccc(CN4CCC(CO)CC4)c3)sc3ccccc23)cc1 [Compound 799, 3-(4-Hydroxymethyl-piperidin-1-ylmethyl)-N-[3-(4-methyl-benzylidene-hydrazinocarbonyl)-benzo[b]thiophen-2-yl]-benzamide]	3.72
COc1ccc(/C=N/NC(=O)c2c(NC(=O)c3cccc(CN4CCC(CO)CC4)c3)sc3ccccc23)cc1 [Compound 803, 3-(4-Hydroxymethyl-piperidin-1-ylmethyl)-N-[3-(4-methoxy-benzylidene-hydrazinocarbonyl)-benzo[b]thiophen-2-yl]-benzamide]	4.92
Cc1ccc(/C=N/NC(=O)c2c(NC(=O)c3cccc(CN(CC(C)O)CC(C)O)c3)sc3c2CCC3)cc1C (stereo not shown) [Compound 804, 3-{[Bis-(2-hydroxy-propyl)-amino]-methyl}-N-[3-(3,4-dimethyl-benzylidene-hydrazinocarbonyl)-5,6-dihydro-4H-cyclopenta[b]thiophen-2-yl]-benzamide]	1.23
Cc1ccc(/C=N/NC(=O)c2c(NC(=O)c3cccc(CN(CC(C)O)CC(C)O)c3)sc3c2CCC3)cc1 (stereo not shown) [Compound 805, 3-{[Bis-(2-hydroxy-propyl)-amino]-methyl}-N-[3-(4-methyl-benzylidene-hydrazinocarbonyl)-5,6-dihydro-4H-cyclopenta[b]-thiophen-2-yl]-benzamide]	4.76
CC(O)CN(Cc1cccc(C(=O)Nc2sc3c(c2C(=O)N/N=C/c2ccc(Cl)c(C(F)(F)F)c2)CCC3)c1)CC(C)O (stereo not shown) [Compound 808, 3-{[Bis-(2-hydroxy-propyl)-amino]-methyl}-N-[3-(4-chloro-3-trifluoromethyl-benzylidene-hydrazinocarbonyl)-5,6-dihydro-4H-cyclopenta[b]thiophen-2-yl]-benzamide]	1.97
COc1ccc(/C=N/NC(=O)c2c(NC(=O)c3cccc(CN(CC(C)O)CC(C)O)c3)sc3c2CCC3)cc1 (stereo not shown) [Compound 809, 3-{[Bis-(2-hydroxy-propyl)-amino]-methyl}-N-[3-(4-methoxy-benzylidene-hydrazinocarbonyl)-5,6-dihydro-4H-cyclopenta[b]thiophen-2-yl]-benzamide]	5.22
CCN(CC)CCNCc1cccc(C(=O)Nc2sc3c(c2C(=O)N/N=C/c2cccc(F)c2)CCC3)c1 [Compound 812, 3-[(2-Diethylamino-ethylamino)-methyl]-N-[3-(3-fluoro-benzylidene-hydrazinocarbonyl)-5,6-dihydro-4H-cyclopenta[b]thiophen-2-yl]-benzamide]	5.58
CCN(CC)CCNCc1cccc(C(=O)Nc2sc3c(c2C(=O)N/N=C/c2ccc(OC)cc2)CCC3)c1 [Compound 815, 3-[(2-Diethylamino-ethylamino)-methyl]-N-[3-(4-methoxy-benzylidene-hydrazinocarbonyl)-5,6-dihydro-4H-cyclopenta[b]thiophen-2-yl]-benzamide]	16.7
Cc1ccc(/C=N/NC(=O)c2c(NC(=O)c3cccc(CN4CCC(CO)CC4)c3)sc3c2CCC3)cc1C [Compound 816, N-[3-(3,4-Dimethyl-benzylidene-hydrazinocarbonyl)-5,6-dihydro-4H-cyclopenta[b]thiophen-2-yl]-3-(4-hydroxymethyl-piperidin-1-ylmethyl)-benzamide]	14.8
Cc1ccc(/C=N/NC(=O)c2c(NC(=O)c3cccc(CN4CCC(CO)CC4)c3)sc3c2CCC3)cc1 [Compound 817, 3-(4-Hydroxymethyl-piperidin-1-ylmethyl)-N-[3-(4-methyl-benzylidene-hydrazinocarbonyl)-5,6-dihydro-4H-cyclopenta[b]thiophen-2-yl]-benzamide]	36.1
O=C(Nc1sc2c(c1C(=O)N/N=C/c1cccc(F)c1)CCC2)c1cccc(CN2CCC(CO)CC2)c1 [Compound 819, N-[3-(3-Fluoro-benzylidene-hydrazinocarbonyl)-5,6-dihydro-4H-cyclopenta[b]thiophen-2-yl]-3-(4-hydroxymethyl-piperidin-1-ylmethyl)-benzamide]	5.95
O=C(Nc1sc2c(c1C(=O)N/N=C/c1ccc(Cl)c(C(F)(F)F)c1)CCC2)c1cccc(CN2CCC(CO)CC2)c1 [Compound 820, N-[3-(4-Chloro-3-trifluoromethyl-benzylidene-hydrazinocarbonyl)-5,6-dihydro-4H-cyclopenta[b]thiophen-2-yl]-3-(4-hydroxymethyl-piperidin-1-ylmethyl)-benzamide]	17.9
COc1ccc(/C=N/NC(=O)c2c(NC(=O)c3cccc(CN4CCC(CO)CC4)c3)sc3c2CCC3)cc1 [Compound 821, 3-(4-Hydroxymethyl-piperidin-1-ylmethyl)-N-[3-(4-methoxy-benzylidene-hydrazinocarbonyl)-5,6-dihydro-4H-cyclopenta[b]thiophen-2-yl]-benzamide]	17.9
Cc1ccc(/C=N/NC(=O)c2c(C)csc2NC(=O)c2cccc(CN(C)C)c2)cc1 [Compound 823, 3-Dimethylaminomethyl-N-[4-methyl-3-(4-methyl-benzylidene-hydrazinocarbonyl)-thiophen-2-yl]-benzamide]	6.93
COc1ccc(/C=N/NC(=O)c2c(C)csc2NC(=O)c2cccc(CN(C)C)c2)cc1 [Compound 825, 3-Dimethylaminomethyl-N-[3-(4-methoxy-benzylidene-hydrazinocarbonyl)-4-methyl-thiophen-2-yl]-benzamide]	4.52
Cc1ccc(/C=N/NC(=O)c2c(C)csc2NC(=O)c2cccc(CN3CCN(c4ncccn4)CC3)c2)cc1C [Compound 826, N-[3-(3,4-Dimethyl-benzylidene-hydrazinocarbonyl)-4-methyl-thiophen-2-yl]-3-(4-pyrimidin-2-yl-piperazin-1-ylmethyl)-benzamide]	4.44
COc1ccc(/C=N/NC(=O)c2c(C)csc2NC(=O)c2cccc(CN3CCC4(CC3)OCCO4)c2)cc1 [Compound 837, 3-(1,4-Dioxa-8-aza-spiro[4,5]dec-8-ylmethyl]-N-[3-(4-methoxy-benzylidene-hydrazinocarbonyl)-4-methyl-thiophen-2-yl]-benzamide]	12.9
CCN(CC)CCN(CCN(CC)CC)Cc1cccc(C(=O)Nc2scc(C)c2C(=O)N/N=C/c2ccc(Cl)c(C(F)(F)F)c2)c1 [Compound 842, 3-{[Bis-(2-diethylamino-ethyl)-amino]-methyl}-N-[3-(4-chloro-3-trifluoromethyl-benzylidene-hydrazinocarbonyl)-4-methyl-thiophen-2-yl]-benzamide]	3.22
CCN(CC)CCN(CCN(CC)CC)Cc1cccc(C(=O)Nc2scc(C)c2C(=O)N/N=C/c2ccc(OC)cc2)c1 [Compound 843, 3-{[Bis-(2-diethylamino-ethyl)-amino]-methyl}-N-[3-(4-methoxy-benzylidene-hydrazinocarbonyl)-4-methyl-thiophen-2-yl]-benzamide]	4.19

Same assay, conditions: phosphate uptake, oocytes expressing rat NaPi-2b; 300 μM, determined from inhibition curve

SMILES	inhibition at 300 µM [%]
COc1ccc(/C=N/NC(=O)c2c(C)csc2NC(=O)c2cccc(CSCCS(=O)(=O)O)c2)cc1 [Compound 785, 2-{3-[3-(4-Methoxy-benzylidene-hydrazinocarbonyl)-4-methyl-thiophen-2-ylcarbamoyl]-benzylsulfanyl}-ethanesulfonic acid]	39.5
